According to PubChem BioAssay (NCI):
Values joined by “and” are separate entries in the source; they are usually repeats but may differ in a detail not shown here. Identical values can stand only once.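 Five compound concentrations were applied to cells in 96-well plates for 48 hours; endpoints were derived by simple linear interpolation of the resulting dose-response curve. The concentration for 50% growth inhibition is given as GI50. The concentration for full growth arrest is given as TGI.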

Key:
Experiment in all cases: NCI anticancer screen, dose series, 48 h
NCI/ADR-RES ovarian = test system: NCI/ADR-RES ovarian
HCT-15 colon = test system: HCT-15 colon
A498 renal = test system: A498 renal
SF-268 CNS = test system: SF-268 CNS
UO-31 renal = test system: UO-31 renal
OVCAR-8 ovarian = test system: OVCAR-8 ovarian
RPMI-8226 leukemia = test system: RPMI-8226 leukemia
PC-3 prostate = test system: PC-3 prostate
MDA-MB-435 = test system: MDA-MB-435
K-562 leukemia = test system: K-562 leukemia
T-47D breast = test system: T-47D breast
HOP-62 NSCLC = test system: HOP-62 NSCLC
SK-OV-3 ovarian = test system: SK-OV-3 ovarian
MOLT-4 leukemia = test system: MOLT-4 leukemia
HOP-92 NSCLC = test system: HOP-92 NSCLC
CAKI-1 renal = test system: CAKI-1 renal
HT29 colon = test system: HT29 colon
U251 CNS = test system: U251 CNS
SK-MEL-28 melanoma = test system: SK-MEL-28 melanoma
ACHN renal = test system: ACHN renal
CCRF-CEM leukemia = test system: CCRF-CEM leukemia
RXF 393 renal = test system: RXF 393 renal
HS 578T breast = test system: HS 578T breast
COLO 205 colon = test system: COLO 205 colon
IGROV1 ovarian = test system: IGROV1 ovarian
SF-539 CNS = test system: SF-539 CNS
SK-MEL-2 melanoma = test system: SK-MEL-2 melanoma
SF-295 CNS = test system: SF-295 CNS
SNB-19 CNS = test system: SNB-19 CNS
NCI-H23 lung = test system: NCI-H23 lung
SN12C renal = test system: SN12C renal
NCI-H522 lung = test system: NCI-H522 lung
SNB-75 CNS = test system: SNB-75 CNS
A549 NSCLC = test system: A549 NSCLC
HCT-116 colon = test system: HCT-116 colon
MCF7 breast = test system: MCF7 breast
KM12 colon = test system: KM12 colon
HCC-2998 colon = test system: HCC-2998 colon
OVCAR-5 ovarian = test system: OVCAR-5 ovarian
DU-145 prostate = test system: DU-145 prostate
EKVX NSCLC = test system: EKVX NSCLC
NCI-H226 lung = test system: NCI-H226 lung
M14 melanoma = test system: M14 melanoma
LOX IMVI melanoma = test system: LOX IMVI melanoma
MDA-MB-231 breast = test system: MDA-MB-231 breast
UACC-62 melanoma = test system: UACC-62 melanoma
UACC-257 melanoma = test system: UACC-257 melanoma
HL-60(TB) leukemia = test system: HL-60(TB) leukemia
SW-620 colon = test system: SW-620 colon
OVCAR-4 ovarian = test system: OVCAR-4 ovarian
TK-10 renal = test system: TK-10 renal
OVCAR-3 ovarian = test system: OVCAR-3 ovarian
786-0 renal = test system: 786-0 renal
MALME-3M melanoma = test system: MALME-3M melanoma
SR leukemia = test system: SR leukemia
NCI-H460 lung = test system: NCI-H460 lung
SK-MEL-5 melanoma = test system: SK-MEL-5 melanoma

## COc1ccc(NC(=O)CC(=O)N2N=C(N(c3ccccc3)c3ccccc3)CC2c2ccccc2)cc1 (configuration not stated)
NCI/ADR-RES ovarian
  TGI: > 100000 nM
HCT-15 colon
  TGI: > 100000 nM
A498 renal
  TGI: > 100000 nM
SF-268 CNS
  TGI: > 100000 nM
UO-31 renal
  TGI: > 100000 nM
OVCAR-8 ovarian
  TGI: > 100000 nM
RPMI-8226 leukemia
  TGI: > 100000 nM
PC-3 prostate
  TGI: > 100000 nM
MDA-MB-435
  TGI: > 100000 nM
K-562 leukemia
  TGI: > 100000 nM
T-47D breast
  TGI: > 100000 nM
HOP-62 NSCLC
  TGI: > 100000 nM
SK-OV-3 ovarian
  TGI: > 100000 nM
MOLT-4 leukemia
  TGI: > 100000 nM
HOP-92 NSCLC
  TGI: > 100000 nM
CAKI-1 renal
  TGI: > 100000 nM
HT29 colon
  TGI: > 100000 nM
U251 CNS
  TGI: > 100000 nM
SK-MEL-28 melanoma
  TGI: > 100000 nM
ACHN renal
  TGI: > 100000 nM
CCRF-CEM leukemia
  TGI: > 100000 nM
RXF 393 renal
  TGI: > 100000 nM
HS 578T breast
  TGI: > 100000 nM
COLO 205 colon
  TGI: > 100000 nM
IGROV1 ovarian
  TGI: > 100000 nM
SF-539 CNS
  TGI: > 100000 nM
SK-MEL-2 melanoma
  TGI: > 100000 nM
SF-295 CNS
  TGI: > 100000 nM
SNB-19 CNS
  TGI: > 100000 nM
NCI-H23 lung
  TGI: > 100000 nM
SN12C renal
  TGI: > 100000 nM
NCI-H522 lung
  TGI: > 100000 nM
SNB-75 CNS
  TGI: > 100000 nM
A549 NSCLC
  TGI: > 100000 nM
HCT-116 colon
  TGI: > 100000 nM
MCF7 breast
  TGI: > 100000 nM
KM12 colon
  TGI: > 100000 nM
HCC-2998 colon
  TGI: > 100000 nM
OVCAR-5 ovarian
  TGI: > 100000 nM
DU-145 prostate
  TGI: > 100000 nM
EKVX NSCLC
  TGI: > 100000 nM
NCI-H226 lung
  TGI: > 100000 nM
M14 melanoma
  TGI: > 100000 nM
LOX IMVI melanoma
  TGI: > 100000 nM
MDA-MB-231 breast
  TGI: > 100000 nM
UACC-62 melanoma
  TGI: > 100000 nM
UACC-257 melanoma
  TGI: > 100000 nM
HL-60(TB) leukemia
  TGI: > 100000 nM
SW-620 colon
  TGI: > 100000 nM
OVCAR-4 ovarian
  TGI: > 100000 nM
TK-10 renal
  TGI: > 100000 nM
OVCAR-3 ovarian
  TGI: > 100000 nM
786-0 renal
  TGI: > 100000 nM

## CC1(C)[C@@H](OC(N)=O)C=C[C@]2(CO)[C@H]3CC[C@]4(C)[C@@H](c5ccc(=O)oc5)[C@@H](Cl)C[C@]4(O)C3=CC[C@@H]12
NCI/ADR-RES ovarian
  GI50: < 0.1 nM
  TGI: 12.7 nM
HCT-15 colon
  GI50: 4.81 nM
  TGI: 25.8 nM
A498 renal
  GI50: 12.2 nM
  TGI: 55.7 nM
SF-268 CNS
  GI50: < 0.1 nM
  TGI: 2.54 nM
UO-31 renal
  GI50: 3.51 nM
  TGI: 13.4 nM
OVCAR-8 ovarian
  GI50: 2.8 nM
  TGI: 15.1 nM
RPMI-8226 leukemia
  GI50: 9.17 nM
  TGI: 95.6 nM
PC-3 prostate
  GI50: 1.89 nM
  TGI: 13.7 nM
MDA-MB-435
  GI50: 8.14 nM
  TGI: 21.5 nM
K-562 leukemia
  GI50: 3.54 nM and 2.5 nM
  TGI: 18.8 nM and 56.2 nM
T-47D breast
  GI50: 3.59 nM
  TGI: 32.6 nM
MALME-3M melanoma
  GI50: 2.39 nM
  TGI: 5.24 nM
HOP-62 NSCLC
  GI50: < 0.1 nM
  TGI: 3.16 nM
SK-OV-3 ovarian
  GI50: 4.74 nM
  TGI: 30.6 nM
SR leukemia
  GI50: 2.32 nM
  TGI: 14.6 nM
MOLT-4 leukemia
  GI50: < 0.1 nM
HOP-92 NSCLC
  GI50: 8.62 nM
  TGI: 51.3 nM
HT29 colon
  GI50: 2.4 nM
  TGI: 15.4 nM
U251 CNS
  GI50: 4.3 nM
  TGI: 15.8 nM
SK-MEL-28 melanoma
  GI50: 11.6 nM
  TGI: 30.3 nM
ACHN renal
  GI50: < 0.1 nM
  TGI: 2.62 nM
CCRF-CEM leukemia
  GI50: < 0.1 nM
  TGI: 13.1 nM
HS 578T breast
  GI50: < 0.1 nM
  TGI: 8.37 nM
COLO 205 colon
  GI50: 5.78 nM
  TGI: 24.4 nM
IGROV1 ovarian
  GI50: 3.13 nM and 2.5 nM
  TGI: 28.4 nM and 82.9 nM
NCI-H460 lung
  GI50: < 0.1 nM
  TGI: 1.28 nM
SK-MEL-2 melanoma
  GI50: 4.02 nM
  TGI: 29.4 nM
SF-295 CNS
  GI50: 2.68 nM
  TGI: 14.4 nM
SNB-19 CNS
  GI50: 8.87 nM and 2.5 nM
  TGI: 22.8 nM and 46.1 nM
NCI-H23 lung
  GI50: < 0.1 nM
  TGI: 11.3 nM
SN12C renal
  GI50: < 0.1 nM
  TGI: 15.7 nM
SK-MEL-5 melanoma
  GI50: 2.69 nM
  TGI: 15.8 nM
NCI-H522 lung
  GI50: < 0.1 nM
  TGI: 3.05 nM
A549 NSCLC
  GI50: < 0.1 nM
  TGI: 1.92 nM
HCT-116 colon
  GI50: < 0.1 nM
  TGI: 10.4 nM
MCF7 breast
  GI50: < 0.1 nM
  TGI: 29.9 nM
KM12 colon
  GI50: 4.56 nM
  TGI: 26.8 nM
HCC-2998 colon
  GI50: 11.3 nM
  TGI: 77.6 nM
OVCAR-5 ovarian
  GI50: 4.26 nM
  TGI: 16.3 nM
DU-145 prostate
  GI50: < 0.1 nM
  TGI: 1.17 nM
EKVX NSCLC
  GI50: < 0.1 nM
  TGI: 8.06 nM
NCI-H226 lung
  GI50: 4.48 nM
  TGI: 16.8 nM
M14 melanoma
  GI50: 13.1 nM
  TGI: 29.7 nM
LOX IMVI melanoma
  GI50: 2.09 nM
  TGI: 10.6 nM
MDA-MB-231 breast
  GI50: 17 nM and 2.5 nM
  TGI: 58.8 nM and 159 nM
UACC-62 melanoma
  GI50: 3.58 nM
  TGI: 13 nM
UACC-257 melanoma
  GI50: 12 nM
  TGI: 29 nM
SW-620 colon
  GI50: 2.62 nM
  TGI: 14.5 nM
OVCAR-4 ovarian
  GI50: < 0.1 nM
  TGI: 3.72 nM
OVCAR-3 ovarian
  GI50: < 0.1 nM
  TGI: 4.11 nM
